Measured values from US9018242B2, “Salt form of tyrosine kinase inhibitor” (Jiangsu Simcere Pharmaceutical R&D Co., Ltd, priority 2011, dated 2015).

Tests used:
[1] = Solubility in water by HPLC; assay type: physicochemical; details: thermodynamic from solid; purified water, 25° C.
Procedure: Liquid chromatograph: Agilent 1200 HPLC system (diode array detector), ChemStation
Mobile phase: acetonitrile/water
Detection wavelength: 264 nm
About 100 mg sample to be tested was precisely weighed and placed into a 100 ml graduated flask at 25° C.; an appropriate amount of solvent [acetonitrile/water (80:20)] was added to dissolve the sample under ultrasonic sound, and the solution was diluted to a given scale and shaken up; 10 μl resulting solution was precisely measured and loaded into the liquid chromatograph, the chromatogram was recorded, and the peak area Scontrol was measured.
10 ml purified water was measured and placed into a 25 ml Kjeldahl flask. The sample to be tested was gradually added at 25° C. until an insoluble solid appeared in the solution. The solution was treated under ultrasonic sound for 30 min and the insoluble solid was filtered off. 10 μl filtrate was precisely weighed and loaded into the liquid chromatograph, the chromatogram was recorded, and the peak area Stest was measured.

[2] = Hygroscopicity measurement (weight gain); assay type: physicochemical; details: 25±1° C., relative humidity 80±2%, 24 hours
Procedure: The method for measuring the hygroscopicity may include: placing a certain amount of a sample to be tested into a precisely weighed glass weighing bottle (m1) with a plug and precisely weighing (m2); placing the opened weighing bottle into a thermostatic dryer (with saturated ammonium sulfate solution placed at the bottom, with a relative humidity of 80±2%) at 25±1° C. for 24 hours; covering the weighing bottle with the plug and precisely weighing (m3), and calculating the percent of weight gain of the sample to be tested according to the following equation: […]
The measurement method includes: placing a certain amount of sample to be tested into a precisely weighed glass weighing bottle (m1) with a plug and precisely weighing (m2); placing the opened weighing bottle in a thermostated dryer (with saturated ammonium sulfate solution placed at the bottom, with a relative humidity of 80±2%) at 25±1° C. for 24 hours; covering the weighing bottle with the plug and precisely weighing (m3).
Characterization of the hygroscopicity and definition of the hygroscopic weight gain:
Deliquescence: sufficient moisture was absorbed to form liquid;
Slight hygroscopicity: hygroscopic weight gain was less than 2% and not less than 0.2%: […]

[3] = Plasma exposure (AUC) in rats after gavage administration; assay type: in vivo; details: rat, po, male SD rats, 10 mg/kg (based on pharmaceutically active compound), salts dissolved in pure water, active compound as suspension in 0.5% CMC, up to 24 h
Procedure: Laboratory animal: male SD rats
Dosage: 10 mg/kg (based on pharmaceutically active compound)
Formulation for salts: dissolving in pure water
(§1) Formulation for pharmaceutically active compound: suspension in CMC (carboxymethylcellulose), 0.5%
Animal Grouping and Testing Course:
Each group includes three male rats having a weight of 180 to 210 g. Gavage administration was performed; the blood was collected at point of time: 5 min, 15 min, 30 min, 45 min, 1 h, 2 h, 4 h, 6 h, 10 h and 24 h; about 250 μl blood was collected from orbital venous plexus into a heparin-containing tube, centrifuged, and 100 μl plasma was used for LC-MS analysis.

[4] = tested on: human colon cancer HT-29 xenografts; assay: Therapeutic effect on human colon cancer HT-29 xenografts in nude mice; assay type: in vivo, BALB/cA-nude mice; details: 40 mg/kg (based on pharmaceutically active compound), gavage for 21 days, L-malate in pure water, active compound as suspension in 0.5% CMC
Procedure: Laboratory animal: BALB/cA-nude mice, 6-7 weeks, ♀
Dosage: 40 mg/kg (based on pharmaceutically active compound)
Formulation for L-malate: dissolving in pure water
as §1
Nude mice were subcutaneously inoculated with human colon cancer HT-29 cells. After the tumor grew to a size of 150 to 250 mm^3, the animals were randomly divided into three groups (d0). The animals were continuously administered through gavage for 21 days, and the tumor volume was measured 2 to 3 times per week. The tumor volume (V) was calculated according to the equation: V=1/2×a×b^2, where a and b represent length and width respectively.
The relative proliferation of tumor=T/C(%)=(T−T0)/(C−C0)×100, where T and C are the tumor volumes at the end of experiment, T0 and C0 are the tumor volumes at the start of experiment; the tumor inhibition rate=1−T/C(%).

Structure (SMILES): CCN(CC)CCNC(=O)c1c(C)[nH]c2c1CCC/C2=C1/C(=O)Nc2ccc(F)cc21.O=C(O)C[C@H](O)C(=O)O [L-malate, (Z)—N-[2-(diethylamino)ethyl]-2-methyl-7-(1,2-dihydro-5-fluoro-2-oxo-3H-indol-3-ylidene)-4,5,6,7-tetrahydro-1H-indol-3-carboxamide L-malate]
- solubility at 30 min [1]: 38.6 mg/mL
- Hygroscopicity [2]: Almost no hygroscopicity
- AUC(0-t) [3]: 1.49 µg·h/mL
- Tumor Inhibition Rate [4]: 54%
